Results from patent US20220387392A1, “METHODS AND COMPOSITIONS RELATED TO THE USE OF ERGOTHIONEINE” (priority 2020, published 2022).

Assays:
[1] = tested on: human neonatal dermal fibroblasts; assay: Telomere length measurement by Telomere Analysis Technology (TAT, HT Q-FISH); assay type: cell-based; settings: for proportion of short telomeres (<3 kbp): control 8.1±0.6
Protocol: (§1) Primary cultures of human neonatal dermal fibroblasts (ATCC® PCS-201-010™) were established under standard culture conditions. Cells were seeded at 3×10^3 cells/cm^2 and were grown and maintained in Fibroblast Medium (Innoprot).
(§2) Primary cultures of neonatal human fibroblast cells were established. Cells were seeded at 5×10^3 cells/cm^2), in Fibroblast Medium (Innoprot). Media was renewed every 2 to 3 days and cells were passaged at sub-confluence (70-80%) every 7 days. Cells were expanded during eight weeks under standard and oxidative (10 μM H2O2) cell culture condition as described previously. Different concentrations of ergothioneine (0.04, 0.3, 0.1, and 1.0 mg/ml) or vehicle control were added to the treated or control cells, respectively. Treatment dilutions were prepared fresh in each passage with fresh media. Cell growth was monitored for each condition by counting cell numbers at each passage using a Countess™ cell counter (Invitrogen). Population doubling (PD) was calculated with the formula PD=3.322(Log(Cf)−Log (Ci))+X (where, Cf: Final concentration; Ci: initial concentration; X: PD last passage). One PD is equivalent to one round of cell replication.
(§3) Each treatment was tested in triplicate and in different plates. Each plate contained a control sample. Frozen vials were obtained at different time points for analysis of relative telomerase activity and telomere length.
All telomere length measurements were performed using Life Length's proprietary Telomere Analysis Technology (TAT®). TAT® measures telomere length using a high-throughput (HT) Q-FISH (quantitative fluorescent in situ hybridization) technique as previously described. This method is based on a quantitative fluorescence in-situ hybridization method modified for measuring individual chromosomes of cells in interphase. In brief, telomeres are hybridized with a fluorescent Peptide Nucleic Acid probe (PNA) that recognizes three telomere repeats (sequence: Alexa488-OO-CCCTAACCCTAACCCTAA, purchased from Panagene). The images of the nuclei and telomeres are captured by a high-content screen system. The intensity of the fluorescent signal from the telomeric PNA probes that hybridize to a given telomere is proportional to the length of that telomere. The intensities of fluorescence are translated to base pairs (bp) through a standard regression curve which is generated using control cell lines with known telomere length. TAT® not only measures telomere length in absolute base pair units, it also provides an assessment of the distribution, 50th and 20th percentiles of telomere length and the percent of short telomeres, allowing for a more comprehensive analysis of each sample. All samples are run in quintuplicate.
Results obtained from each treatment and at each time point were compared with the appropriate control group using Student's t test (independent samples t-test).

[2] = tested on: primary neonatal fibroblast cells; assay: MTT assay, cytotoxicity of ergothioneine; assay type: cell-based, human; settings: all concentrations tested (0.04, 0.1, 0.3, and 1.0 mg/ml); 72 hours and one week; with and without 10 μM H2O2
Protocol: as §1
The MTT assay is a colorimetric assay that uses a yellow tetrazolium salt (3-(4,5-dimethylthiazol-2-yl)-2,5-diphenyltetrazolium bromide, or MTT) to measure metabolic activity of cells as a proxy for cell viability. MTT reduction rate is an indicator of the functional integrity of the mitochondria and as a result, of cellular viability. To determine the cytotoxicity of ergothioneine on primary neonatal fibroblast cells, the cells were seeded in 96 well plates (Nunc) at 0.35×10^4 cells/plate and 0.5×10^4 cells/plate for 72 hours and 1-week treatment. After 24 hours from seeding, the cells were washed once with phosphate-buffered saline (PBS) and treated with the respective compounds in cell culture media. Ergothioneine was dissolved in dimethyl sulfoxide (DMSO). […] Each condition was tested in triplicates with and without 10 μM H2O2. For positive and negative controls, 8 mM methyl methane sulfonate (MMS) and DMSO 100% were used, respectively. […] Absorbance was measured using an Envision multiplate reader at a wavelength of 570 nm.
The percentage of cell death was calculated using the following equation: […]

[3] = tested on: neonatal human fibroblast cells; assay: Proliferative analysis (population doubling, growth curves); assay type: cell-based
Protocol: as §2, §3

[4] = humans, supplementation for 7 days, cited from earlier work
[5] = ingested; rats; cited from earlier work
telomerase = assay: Relative telomerase activity (Q-TRAP); assay type: cell-based, human
Protocol: The quantitative polymerase chain reaction (PCR)-based telomeric repeat amplification protocol (Q-TRAP) is a sensitive and accurate PCR-based assay that enables the measurement of telomerase activity. Cellular pellets from neonatal fibroblast cells were lysed using the CHAPS (3-cholamidopropyl dimethylammonio 1-propanesulfonate) lysis buffer for protein extraction. Samples were stored at 4° C. and were used within 24 hours. Protein quantification was performed for each sample using Biorad protein assay (Bio-Rad Kit 50000002). A minimum of 0.3 mg/ml protein concentration was required to proceed with the analysis of the samples. Telomerase protein extracts are then incubated at 27° C. for 30 min to allow the telomerase in the protein extracts to elongate the TS primer by adding TTAGGG repeat sequences. Following the enzymatic reaction, telomerase extension products are then amplified and quantified by real-time qPCR using SYBR Green (a green fluorescent cyanine dye). PCR was initiated at 95° C. for 10 min, followed by a 40-cycle amplification (95° C. for 15 s, 60° C. for 60 s) and a melt curve stage step. Reactions were monitored and analyzed with QuantStudio 5 (Applied Biosystems). Telomerase activity in cell lines or samples is calculated based on the threshold cycle (Ct). All samples were run in triplicate.
The telomerase-positive standard dilution series is plotted against the telomere protein concentration (r^2>0.9) as a standard curve of Ct values. The standard curve is generated by graphing threshold cycles (Ct values) of HeLa cell line standards against log of 1000, 333, 111, 37.03, 12.34, 4.11, 1.37 and 0.45 ng of protein (whole cell extract).

[6] = tested on: primary neonatal fibroblast cells; assay: Morphological analysis through optical microscopy visualization; assay type: cell-based, human; settings: concentrations of up to 1.0 mg/ml

SMILES: C[N+](C)(C)[C@@H](Cc1c[nH]c(=S)[nH]1)C(=O)[O-] [ergothioneine]
- effect on telomeres (FIG. 7D) ([1]; dose of 0.3 mg/ml): telomere lengthening
- median telomere length vs control ([1]; oxidative conditions (10 μM H2O2), Week 4, 0.1 or 1.0 mg/ml, p<0.05): higher median telomere length
- median telomere length ([1]; oxidative conditions (10 μM H2O2), Week 8, 0.04 mg/ml, control 8725±94): 9015±112 bp
- median telomere length ([1]; oxidative conditions (10 μM H2O2), Week 8, 0.1 mg/ml, control 8725±94): 8794±212 bp
- median telomere length ([1]; oxidative conditions (10 μM H2O2), Week 8, 0.3 mg/ml, control 8725±94 bp, in bp): 9068±24
- median telomere length ([1]; oxidative conditions (10 μM H2O2), Week 8, 1.0 mg/ml, control 8725±94): 8997±171 bp
- 20th percentile telomere length vs control ([1]; oxidative conditions, Week 4, 0.1, 0.3, or 1.0 mg/ml, p<0.05): greater telomere length
- reduction of telomere shortening rate ([1]; oxidative conditions, Week 4, all concentrations, significant for 0.04, 0.1 and 1.0 mg/ml): 27-52%
- percentage of short telomeres (<3 kbp) vs control ([1]; oxidative conditions, Week 4 and Week 8, all concentrations): reduced the percentage of short telomeres
- 20th percentile telomere length vs control ([1]; oxidative conditions, Week 8, all concentrations): significant increases
- telomere shortening rate vs control ([1]; oxidative conditions, Week 8, did not reach statistical significance): appeared to be lower
- 20th percentile telomere length vs control ([1]; standard conditions, Week 4, 0.3 mg/ml or 1.0 mg/ml): greater
- proportion of short telomeres (<3 kbp) ([1]; standard conditions, Week 4, 0.3 mg/ml): 7.3±1.1%
- median telomere length ([1]; standard conditions, Week 4, 0.3 mg/ml, control 9378±107): 9637±340 bp
- proportion of short telomeres (<3 kbp) ([1]; standard conditions, Week 4, 1.0 mg/ml): 6.8±1.0%
- median telomere length ([1]; standard conditions, Week 4, 1.0 mg/ml, control 9378±107): 9745±206 bp
- telomere shortening rate vs control ([1]; standard conditions, Week 4, 1.0 mg/ml, p=0.09): trend for decreased telomere shortening rate
- telomere shortening rate vs control ([1]; standard conditions, Week 4, 0.1 or 0.3 mg/ml, normalized by population doublings): significantly lower
- protective effects on telomeres seen at Week 4 ([1]; standard conditions, Week 8): no longer present
- cell death [2]: < 20%
- proliferative capacity vs control ([3]; oxidative culture conditions (10 μM H2O2), 1.0 or 0.3 mg/ml, after Week 4): increase in their proliferative capacity
- proliferative capacity vs control ([3]; standard culture conditions, 0.04-1.0 mg/ml, 8 weeks): no differences
- concentration in whole blood ([4]; approximately): 30 to 40 µM
- concentration in plasma [4]: approximately 3 μM
- whole-body half-life [5]: 1 month
- telomerase activity vs control cells (telomerase; 6 hours, all dose levels): significantly lower
- telomerase activity, higher compared with control cells (telomerase; 24 hours, all dose levels, p<0.05): 50-90%
- telomerase activity vs control (telomerase; 48 hours, statistically significant only for 0.04 mg/ml and 1.0 mg/ml): still elevated
- telomerase activity vs control (telomerase; 72 hours): not significantly different
- deleterious effects by morphological analysis [6]: did not produce any deleterious effects
